According to ChEMBL document CHEMBL1201862, “PubChem BioAssay data set” (2004):
Values joined by “and” are separate entries in the source; they are usually repeats but may differ in a detail not shown here. Equal values may be shown once.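 Five concentrations, 48 hours, 96-well plates. The concentration for 50% growth inhibition is given as GI50.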 Active and inactive are the calls of the source. No stated cut-off is given here; in the data, active = GI50 up to about 1.1 µM and inactive = higher.

Columns and labels:
Experiment in all cases: NCI anticancer screen, dose series, 48 h
A498 = system: A498
CAKI-1 = system: CAKI-1
HCC 2998 = system: HCC 2998
HL-60 = system: HL-60
HOP-62 = system: HOP-62
HT-29 = system: HT-29
IGROV-1 = system: IGROV-1
MDA-MB-231 = system: MDA-MB-231
MDA-N = system: MDA-N
MOLT-4 = system: MOLT-4
NCI-H460 = system: NCI-H460
NCI/ADR-RES = system: NCI/ADR-RES
OVCAR-3 = system: OVCAR-3
OVCAR-5 = system: OVCAR-5
SF-268 = system: SF-268
SK-MEL-2 = system: SK-MEL-2
UACC-257 = system: UACC-257
EKVX = system: EKVX
RPMI-8226 = system: RPMI-8226
RXF 393 = system: RXF 393

SMILES | GI50 (A498) | GI50 (CAKI-1) | GI50 (HCC 2998) | GI50 (HL-60) | GI50 (HOP-62) | GI50 (HT-29) | GI50 (IGROV-1) | GI50 (MDA-MB-231) | GI50 (MDA-N) | GI50 (MOLT-4) | GI50 (NCI-H460) | GI50 (NCI/ADR-RES) | GI50 (OVCAR-3) | GI50 (OVCAR-5) | GI50 (SF-268) | GI50 (SK-MEL-2) | GI50 (UACC-257) | GI50 (EKVX) | GI50 (RPMI-8226) | GI50 (RXF 393)
O=C(CCCn1ccnc1[N+](=O)[O-])NCCn1ccnc1 | > 100 µM (inactive) | > 100 µM (inactive) | > 100 µM (inactive) | > 100 µM (inactive) | > 100 µM (inactive) | > 100 µM (inactive) | > 100 µM (inactive) | > 100 µM (inactive) | > 10 µM (inactive) | > 100 µM (inactive) | > 100 µM (inactive) | > 100 µM (inactive) | > 100 µM (inactive) | > 100 µM (inactive) | > 100 µM (inactive) | > 100 µM (inactive) | > 100 µM (inactive) |  |  | 
COC(=O)[C@@H]1[C@@H]2NC(=S)N[C@@]1(C)Oc1ccccc12 | > 100 µM (inactive) | 76.9 µM (inactive) | 41.6 µM (inactive) |  | 89.3 µM (inactive) | 28.5 µM (inactive) | 49 µM (inactive) | 74.6 µM (inactive) | 18.4 µM (inactive) | 0.324 µM (active) | 44.2 µM (inactive) | 30.2 µM (inactive) | > 100 µM (inactive) | 60.4 µM (inactive) | 39 µM (inactive) | > 100 µM (inactive) | > 100 µM (inactive) | 52.5 µM (inactive) | 48.2 µM (inactive) | > 100 µM (inactive)
CCC/C(Cl)=N\OC(=O)Nc1ccc(F)c([N+](=O)[O-])c1 | 21.5 µM (inactive) | 4.3 µM (inactive) | 14.5 µM (inactive) |  | 18.4 µM (inactive) | 20.1 µM (inactive) | 15.3 µM (inactive) | 20.3 µM (inactive) | 21.1 µM (inactive) | 3.41 µM (inactive) | 12.5 µM (inactive) | 17.9 µM (inactive) | 15.6 µM (inactive) | 20.4 µM (inactive) | 14.2 µM (inactive) | 14.3 µM (inactive) | 17.3 µM (inactive) | 16.2 µM (inactive) | 9.51 µM (inactive) | 
CC1CCC/C1=C(/I)C(=O)c1ccccc1 (stereo unspecified) |  | 2.97 µM (inactive) | > 100 µM (inactive) | 39.5 µM (inactive) | > 100 µM (inactive) | 48 µM (inactive) | > 100 µM (inactive) | 40.2 µM (inactive) | 36.6 µM (inactive) | 19.2 µM (inactive) | > 100 µM (inactive) | 76.7 µM (inactive) |  | 18.5 µM (inactive) | > 100 µM (inactive) | > 100 µM (inactive) | 89.9 µM (inactive) | > 100 µM (inactive) | 55.3 µM (inactive) | > 100 µM (inactive)
CC(C)OP(=O)(OC(C)C)C(C)(C)O |  | > 100 µM (inactive) | > 100 µM (inactive) | 83.2 µM (inactive) | > 100 µM (inactive) | > 100 µM (inactive) | > 100 µM (inactive) | > 100 µM (inactive) | > 100 µM (inactive) | > 100 µM (inactive) |  | > 100 µM (inactive) | > 100 µM (inactive) | > 100 µM (inactive) | > 100 µM (inactive) | > 100 µM (inactive) | > 100 µM (inactive) | > 100 µM (inactive) | > 100 µM (inactive) | > 100 µM (inactive)
Cc1nc2cc(F)c(F)cc2[nH]c1=O |  | > 100 µM (inactive) | > 100 µM (inactive) | > 100 µM (inactive) | > 100 µM (inactive) | > 100 µM (inactive) |  | > 100 µM (inactive) | > 100 µM (inactive) | > 100 µM (inactive) | > 100 µM (inactive) | > 100 µM (inactive) | > 100 µM (inactive) | > 100 µM (inactive) | > 100 µM (inactive) | > 100 µM (inactive) | > 100 µM (inactive) | 67.1 µM (inactive) | > 100 µM (inactive) | > 100 µM (inactive)
Cc1ccc(S(=O)(=O)SC/C=C\CSS(=O)(=O)c2ccc(C)cc2)cc1 | 57.1 µM (inactive) and 49.4 µM (inactive) | 21.4 µM (inactive) and 18.2 µM (inactive) | 49.1 µM (inactive) and 55 µM (inactive) |  | 49.2 µM (inactive) and 35.9 µM (inactive) |  | 39.2 µM (inactive) and 28.1 µM (inactive) | 16.4 µM (inactive) | 14.4 µM (inactive) |  | 30.3 µM (inactive) and 35.6 µM (inactive) | 52.2 µM (inactive) | 24.4 µM (inactive) and 16 µM (inactive) |  | 26.3 µM (inactive) and 19.8 µM (inactive) | 47 µM (inactive) |  | > 92.7 µM (inactive) and 53.6 µM (inactive) |  | 18 µM (inactive) and 22.8 µM (inactive)
O=[N+]([O-])c1ccc(OP(=O)(O)OCC2OC(CP(=O)(O)O)C(O)C2O)cc1 (stereo unspecified) | > 100 µM (inactive) | > 100 µM (inactive) | > 100 µM (inactive) | > 100 µM (inactive) | > 100 µM (inactive) | > 100 µM (inactive) | > 100 µM (inactive) | > 100 µM (inactive) | > 100 µM (inactive) | > 100 µM (inactive) | > 100 µM (inactive) | > 100 µM (inactive) | > 100 µM (inactive) | > 100 µM (inactive) | > 100 µM (inactive) | > 100 µM (inactive) | > 100 µM (inactive) | > 100 µM (inactive) |  | > 100 µM (inactive)
